Like-named read-outs stand apart in the source and are kept apart here. Where a SMILES comes first, the peptide text is derived from it. Bridges are numbered along the chain shown (N, C = ends). Roman numbers before positions name the chains, in order. Where no end group is shown, it is not given here. Side-chain parts run from the residue outwards. [ ]: non-standard residue; d: D form. Ahx = NCCCCCC(=O)O

Assay [1] has as its target T1, human CD40 muIg fusion protein (UniProt P01863+P25942).
T1 construct: purchased ANCELL Corporation, Bayport, Minn
The experiment in a line: Biacore3000 surface plasmon resonance study of the CD40/CD40L interaction and the ligands. It counts as binding. The source says: The Biacore3000 is a device which allows the interactions between two molecules to be studied, based on the surface plasmon resonance. It allows measurement in real time, and therefore allows the kinetics of interaction (association and disassociation) of an analyte (which is in an injected solution) and of a ligand (immobilised on a microchip supporting the measurement) to be monitored. The kinetic measurements at different concentrations of analyte allow calculation of the affinity constants of the interaction between the ligand and the analytes. The microchip contains four cells for different measurements, which allows direct comparison of a reference cell on which a protein which is not pertinent (protein which has no affinity with the ligand studied), but close to the ligand is immobilised with the cell on which the ligand is immobilised.
Rabbit antibodies directed against the constant region of mouse immunoglobulins were immobilized on a microchip. In the reference cell a monoclonal mouse antibody of isotype IgG2a (LG112) at 40 nM is immobilized with a flow of 5 μL/min for 2 minutes; in the cell of the ligand the recombinant CD40 associated with the constant region of the mouse IgG2a heavy chain (human CD40 muIg fusion protein, ANCELL Corporation, Bayport, Minn.) is immobilized under the same conditions.
On the two cells (reference and ligand), the CD40L (human CD154 muCD8 fusion protein, ANCELL Corporation) at different concentrations or the CD40L at a concentration of 1 μM or of 125 nM, are injected, as analyte, in the presence of different concentrations of ligands. The flow in the presence of the analytes is 10 μL/min for 5 minutes to study the association and, in the absence of analytes, the conditions are the same to study the dissociation.
In order to regenerate the cells (i.e. remove all the proteins adsorbed in a non-covalent manner), a solution of 10 mM of HCl is injected at 5 μL/min for 1 minute. The cells are then ready for another analysis.

Assay [2] addresses T2, CD40-CD40L interaction (Homo sapiens, UniProt P25942).
T2 construct: they receive a signal via the CD40 molecule, which they express in a constitutive manner; endogenous in cells; host or cells: BL41 Burkitt's lymphoma cells (endogenous CD40), co-cultured with 3T6 fibroblasts transfected with CD40L
Description: Expression of CD95 induced by CD40L on BL41 cells cultured with 3T6-CD40L fibroblasts (flow cytometry). Format: cell-based. As to conditions: for % of inhibition of the expression of CD95 induced by CD40L: BL41 + 3T6-CD40L, 48 hours. As for the experimental part:
Then, the affinity of these ligands for the CD40 molecule is evaluated using a biosensor (BIAcore™). The agonist or antagonist effect of the ligands was tested using two simple biological tests. In the first, the expression of the membranous molecule CD95 by transformed B cells (Burkitt's lymphoma) is studied after activation by the CD40-CD40L interaction (Schattner et al., 1996). In such a model, the CD40L partner is expressed on transfected fibroblasts (3T6-CD40L) (Buelens et al., 1997). The BL41 Burkitt's lymphoma cells are incubated with non-transfected 3T6 fibroblasts (FIGS. 3A and 3C) or with 3T6 fibroblasts transfected by CD40L (FIGS. 3B and 3D). After 48 hours, the expression of CD95 is evaluated by flow cytometry. The expression of CD95 is induced in the presence of CD40L (FIG. 3B). A commercial anti-CD40L antibody inhibits the consequences of the CD40-CD40L interaction (FIG. 3D).
The antagonist effect is evaluated by measurement of the decrease in the expression of CD95 induced by the CD40L in the presence of the different chemical ligands (see Table I). With the help of these tests, the most interesting ligands are chosen to evaluate their activity in vivo and in vitro in more complex models.
The lymphoma B cells express the CD95 molecule when they receive a signal via the CD40 molecule, which they express in a constitutive manner. This signal is generally conveyed by the CD40L (CD154) molecule expressed by another cell. The antagonist ligands inhibit the binding of CD40 on CD40L and thus […] the expression of CD95. The agonist ligands copy the CD40L molecule and induce the expression of CD95 even in the absence of the cell expressing CD40L.
The BL41 Burkitt's lymphoma cells (5.10^5/ml) are cultured in the presence of 3T6 fibroblasts (10^5/ml) transfected (3T6-CD40L) or not transfected with CD40L (3T6), and treated with mitomycin to stop their proliferation. The ligands are added at the start of the culture at the chosen concentration. After culture for 48 hours, expression of the CD95 molecule is measured by flow cytometry. The BL41 cells are distinguished from the fibroblasts using an anti-CD19 antibody (specific marker of the B cells).
In general terms: Flow cytometry measures light scatter and fluorescence of single cells or particles in a stream.

Assay [3] concerns the target CD40 molecule expressed constitutively by BL41 Burkitt's lymphoma cells (UniProt P25942). The experiment in a line: cell-based or functional assay.

Sequence of CD40 molecule expressed constitutively by BL41 Burkitt's lymphoma cells (P25942 21-277 limits assumed): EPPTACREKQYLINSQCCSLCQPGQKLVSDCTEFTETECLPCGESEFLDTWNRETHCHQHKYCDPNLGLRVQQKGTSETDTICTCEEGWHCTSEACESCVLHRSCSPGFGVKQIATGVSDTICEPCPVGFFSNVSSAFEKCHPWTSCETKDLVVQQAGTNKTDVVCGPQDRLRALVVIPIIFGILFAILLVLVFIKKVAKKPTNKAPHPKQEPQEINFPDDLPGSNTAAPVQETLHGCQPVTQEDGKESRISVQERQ
T2 sequence (P25942 21-277): as the sequence (P25942 21-277 limits assumed) above
T1 sequence (P25942+P01863 fused): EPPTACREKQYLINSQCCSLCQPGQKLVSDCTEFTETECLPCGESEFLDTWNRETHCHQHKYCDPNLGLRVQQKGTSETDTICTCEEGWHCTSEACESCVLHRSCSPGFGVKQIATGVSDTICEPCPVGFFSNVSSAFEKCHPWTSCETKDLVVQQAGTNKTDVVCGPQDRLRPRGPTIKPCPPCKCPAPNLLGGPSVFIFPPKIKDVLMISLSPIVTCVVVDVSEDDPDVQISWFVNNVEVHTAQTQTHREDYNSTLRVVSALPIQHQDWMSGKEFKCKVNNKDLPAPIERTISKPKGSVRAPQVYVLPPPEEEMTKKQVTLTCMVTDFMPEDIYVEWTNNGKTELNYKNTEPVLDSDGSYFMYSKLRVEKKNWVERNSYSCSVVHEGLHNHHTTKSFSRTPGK

For the molecule “L12: from linear 8-B core coupled with pentapeptide 1-A; linear version of L9 (chain Lys-Lys-Lys; peptide KGYY; not fully specified (some residues, C-terminus); also: peptide (pentapeptide 1-A) coupled to linear core 8-B, linkage and core structure not given here)”, in assay [1] (in the presence of 100 nM of CD40L), the “binding to CD40 and displacement of CD40L (in words)” value is “Only the L4 and L9 molecules bind to CD40”.
As to `NCCCC[C@H](N)C(=O)NCC(=O)N[C@@H](Cc1ccc(O)cc1)C(=O)N[C@@H](Cc1ccc(O)cc1)C(=O)NCCCCCC(=O)NCCCC[C@H]1CC(=O)N[C@@H](CCCCNC(=O)CCCCCNC(=O)[C@H](Cc2ccc(O)cc2)NC(=O)[C@H](Cc2ccc(O)cc2)NC(=O)CNC(=O)[C@@H](N)CCCCN)CC(=O)N[C@@H](CCCCNC(=O)CCCCCNC(=O)[C@H](Cc2ccc(O)cc2)NC(=O)[C@H](Cc2ccc(O)cc2)NC(=O)CNC(=O)[C@@H](N)CCCCN)CC(=O)N1` [L9], the IC50 in assay [1] (in the presence of 100 nM of CD40L, read-out: inhibition of 50% of the binding of CD40L (IC50)) is less than 0.05 µM. In addition, the “equilibrium constant compared with L4” value in assay [1] (inferred from IC50, same conditions as L4) is recorded as “less than that of L4”.
For `C[C@H](NC(=O)[C@H](CCCCNC(=O)[C@H](CCCCNC(=O)[C@H](CCCCNC(=O)[C@H](CCCCNC(=O)[C@H](CCCNC(=N)N)NC(=O)[C@@H]1CCCN1C[C@@H](N)CCCCN)NC(=O)[C@H](CCCNC(=N)N)NC(=O)[C@@H]1CCCN1C[C@@H](N)CCCCN)NC(=O)[C@H](CCCNC(=N)N)NC(=O)[C@@H]1CCCN1C[C@@H](N)CCCCN)NC(=O)[C@H](CCCNC(=N)N)NC(=O)[C@@H]1CCCN1C[C@@H](N)CCCCN)NC(=O)[C@H](CCCNC(=N)N)NC(=O)[C@@H]1CCCN1C[C@@H](N)CCCCN)C(=O)O` [L1], the “% of inhibition of the expression of CD95 induced by CD40L” value in assay [2] (ligand 25 μM) is 0%; in assay [2] (ligand 50 μM), 43%; in assay [2] (ligand 100 μM) it was 60%. Further, in assay [1] (analyte CD40L at 1 μM and L1 at 50 μM, read-out: equilibrium constant), the Kd was more than 50 µM.
Turning to `C[C@H](NC(=O)[C@H](CCCCNC(=O)[C@H](CCCCNC(=O)[C@H](CCCCNC(=O)[C@H](CCCCNC(=O)[C@H](Cc1ccc(O)cc1)NC(=O)[C@H](Cc1ccc(O)cc1)NC(=O)CNC(=O)[C@@H](N)CCCCN)NC(=O)[C@H](Cc1ccc(O)cc1)NC(=O)[C@H](Cc1ccc(O)cc1)NC(=O)CNC(=O)[C@@H](N)CCCCN)NC(=O)[C@H](Cc1ccc(O)cc1)NC(=O)[C@H](Cc1ccc(O)cc1)NC(=O)CNC(=O)[C@@H](N)CCCCN)NC(=O)[C@H](Cc1ccc(O)cc1)NC(=O)[C@H](Cc1ccc(O)cc1)NC(=O)CNC(=O)[C@@H](N)CCCCN)NC(=O)[C@H](Cc1ccc(O)cc1)NC(=O)[C@H](Cc1ccc(O)cc1)NC(=O)CNC(=O)[C@@H](N)CCCCN)C(=O)O` [L3] (I: H-KGYYKA-OH / II: H-KGYYK([Tyr-Tyr-Gly-Lys]) / III: H-KGYYK / IV: H-KGYYK; amide I:5-IV:C, II:C-III:5, III:C-IV:5), the “% of inhibition of the expression of CD95 induced by CD40L” value in assay [2] (ligand 5 μM) is 0%; in assay [2] (ligand 10 μM), 13%; in assay [2] (ligand 25 μM) it was 25%; in assay [2] (ligand 50 μM) it was 62%; in assay [2] (ligand 100 μM) it was 60%.
For the molecule `CC(=O)NCCCC[C@H](NC(C)=O)C(=O)NCCCCC(NC(C)=O)C(=O)NCCCC[C@H](NC(C)=O)C(=O)NCCCC[C@H](NC(C)=O)C(=O)N[C@@H](C)C(=O)O` (some centres unmarked) [L2], the “effect on the expression of CD95 induced by CD40L (in words)” value in assay [2] (BL41 cells in the presence of 3T6-CD40L cells, no concentration stated) is “no effect”. Moreover, the “% of inhibition of the expression of CD95 induced by CD40L” value in assay [2] (ligand 25 μM), in assay [2] (ligand 50 μM) and in assay [2] (ligand 100 μM) was 0% throughout.

B1: CD40L: human CD154 muCD8 fusion protein, ANCELL Corporation (protein)
chain: KPQAPELRIFPKKMDAELGQKVDLVCEVLGSVSQGCSWLFQNSSSKLPQPTFVVYMASSHNKITWDEKLNSSKLFSAMRDTNNKYVLTLNKFSKENEGYYFCSVISNSVMYFSSVVPVLQKVNSTTTKPVLRTPSPVHPTGTSQPQRPEDCRPRGSVKGTGLDFACDIYHRRLDKIEDERNLHEDFVFMKTIQRCNTGERSLSLLNCEEIKSQFEGFVKDIMLNKEETKKENSFEMQKGDQNPQIAAHVISEASSKTTSVLQWAEKGYYTMSNNLVTLENGKQLTVKRQGLYYIYAQVTFCSNREASSQAPFIASLCLKSPGRFERILLRAANTHSSAKPCGQQSIHLGGVFELQPGASVFVNVTDPSQVSHGTGFTSFGLLKL
Turning to B1, the Kd in assay [1] (4 concentrations of CD40L from 62.5 to 500 nM, read-out: equilibrium constant of CD40L for CD40) is 0.054 µM.

B2: Compound L2 (ligand L2), core structure of the ligands L1 and L3 (peptide)
chain: KKKKA
modifications: also: four Lys joined through epsilon-amines (isopeptide bonds), free amine groups acetylated
Regarding B2, in assay [3], the % of inhibition of the expression of CD95 induced by CD40L, ligand at 25 µM is 0%; the % of inhibition of the expression of CD95 induced by CD40L, ligand at 50 µM is 0%; the % of inhibition of the expression of CD95 induced by CD40L, ligand at 100 µM came out at 0%.

B3: Compound L4a (ligand L4a): same core molecule as L4 with only 2 examples of the peptide sequence (peptide)
chain: [dA]K[dA]K[dA]K
peptide: H-KGYY[Ahx]
modifications: also: two copies of chain 2 linked via Ahx to epsilon-amines of two core Lys, which Lys not given here, further groups not given here, head-to-tail to a chain's N/C-terminus
With B3, in assay [3], the % of inhibition of the expression of CD95 induced by CD40L, ligand at 0.5 µM was 0%; the % of inhibition of the expression of CD95 induced by CD40L, ligand at 5 µM was 8%; the % of inhibition of the expression of CD95 induced by CD40L, ligand at 50 µM came to 13%.

The IC50 is the point on the concentration scale where inhibition reaches its midpoint.

(Values after patent US7741280B2, “Multimeric molecules, the preparation method thereof and use of same for the preparation of medicaments” (Centre National de la Recherche Scientifique, priority 2002, dated 2010).)
